Here are results for three compounds from patent US11179408B2, “Use of cyanoglucosides and pharmaceutical formulations thereof in the treatment of diabetes” (UNIVERSIDADE ESTADUAL PAULISTA JULIO DE MESQUITA FILHO, priority 2016, dated 2021).

The structures appear in SMILES notation.

Assay [1] deals with diabetic mice. Description: Fasting blood glucose in streptozotocin diabetic mice. Type of assay: in vivo, Male Swiss mice. To be noted: for fasting blood glucose: streptozotocin diabetic mice, end of treatment, p<0.05. Here is the method:
The hydroalcoholic extract as obtained in Example 1 and the major compound lithospermoside (BH-21) as obtained in Example 2 were evaluated for their pharmacological activity in reducing fasting blood glucose and improving glucose tolerance in diabetic animals as described below.
(§1) The major compound of the cyanoglicoside fraction, BH-21 was tested at a concentration of 10 mg/kg in diabetic mice by gavage daily for 28 days. Male Swiss mice were divided into two groups and treated daily for 28 days by gavage: a control group (CTLSAL) that received saline vehicle (0.9% NaCl) and a group called streptozotocin, previously treated with this drug (150 mg/kg). Animals with blood glucose higher than 250 mg/dl were included in the study and divided into three experimental groups. One group, named streptozotocin saline (STZSAL) received saline (0.9% NaCl); another group of animals treated with metformin (STZMET) at the dose of 300 mg/kg and a third group (LITHOS) received the compound BH-21 (lithospermoside), diluted in saline at a dose of 10 mg/kg body weight.

Assay [2] deals with diabetic mice. Description: Intraperitoneal glucose tolerance test (IPGTT) in diabetic mice. Type of assay: in vivo. To be noted: streptozotocin diabetic mice; for IPGTT area under the curve (AUC): compared to CTLSAL group. Here is the method: The leaves extract obtained under Example 1 was tested at a concentration of 400 mg/kg. The mice were treated daily for days by gavage with the extract as well as metformin (300 mg/kg), and at the end of treatment they underwent an […] glucose tolerance test.
The intraperitoneal glucose tolerance assay (IPGTT) was used to evaluate the glucose disappearance from the plasma of 8-10 hours fasted mice at time 0 and after glucose intraperitoneal injection (2 g/kg) in 15, 30, 60, 90 and 120 min as represented on FIG. 2A where curves represent: CTLSAL: normoglycemic mice treated orally with saline vehicle (0.9% NaCl), STZSAL: diabetic mice treated orally with saline vehicle (0.9% NaCl), STZMET: diabetic mice treated orally with metformin at the concentration of 300 mg/kg, STZEXT: diabetic mice treated orally with 70% EtOH extract at a concentration of 400 mg/kg. […] Data expressed as mean±standard error of the mean. ANOVA followed by Tukey post test. a vs. CTLSAL, b vs. STZSAL, c vs. STZMET, N=8-12, p<0.05.
as §1

The next assay has as its system normal rats. The settings on record: oral, 200 mg/kg, 1 h after treatment; cited from earlier work.
For assay [3], the system named is alloxan-induced diabetic rats. The settings on record: oral, 50, 100 and 200 mg/kg; cited from earlier work.
[4] abbreviates: 10 mg/kg by gavage daily for 28 days.

For `N#C/C=C1/C=C[C@@H](O)[C@H](O)[C@H]1OC1OC(CO)C(O)C(O)C1O` (stereo in doubt) [BH-21, (2Z)-2-[(4R,5S,6S)-4,5-dihydroxy-6-[[(2S,3S,4R,5R,6S)-3,4,5-trihydroxy-6-(hydroxymethyl)-2-oxanyl]oxy]-1-cyclohex-2-enylidene]acetonitrile], in the assay with diabetic mice [1] (higher than metformin), the “in vivo hypoglycemic activity relative to metformin” value is reported as “about 30 times”. In the assay on diabetic mice [1] (setting [4]), the fasting blood glucose entry is “significantly lower than in STZSAL and STZMET groups but greater than the CTLSAL group”. Also, the “IPGTT area under the curve (AUC)” value in the assay on diabetic mice [2] (setting [4]) is recorded as “no significant difference”. Besides, the “IPGTT blood glucose values after intraperitoneal administration of glucose” value in the assay on diabetic mice [2] (10 mg/kg daily for 28 days, vs metformin 300 mg/kg group, p<0.05) is “significantly lower than the STZMET group at all times”.
Consider `CN(C)C(=N)N=C(N)N` [metformin], for which the fasting blood glucose entry in the assay with diabetic mice [1] (metformin 300 mg/kg daily for 28 days, vs CTLSAL) was “significantly increased”. Moreover, in the assay on diabetic mice [2] (metformin 300 mg/kg daily for 28 days), the “IPGTT area under the curve (AUC)” value is “no significant difference”.
Regarding `C[C@@H]1O[C@@H](Oc2cc(O)c3c(=O)c(O[C@@H]4O[C@@H](C)[C@H](O)[C@@H](O)[C@H]4O)c(-c4ccc(O)cc4)oc3c2)[C@H](O)[C@H](O)[C@H]1O` [kaempferitrin, kaempferol-3,7-O—(R)-dirhamnoside], the blood glucose lowering entry in the assay on normal rats is on record as “blood glucose lowering was observed only with the higher dose”. Moreover, in assay [3], the hypoglycemic effect result is reported as “evident at all doses tested”.
